{
  "source": "ChEMBL document CHEMBL5728460",
  "about": "“Pyrimidine compounds and pyrimido indole compounds and methods of use” (2021)",
  "key": {"[1]": {"assay": "TBD: TBD"}, "Dihydrofolate reductase": {"target": "T1, Dihydrofolate reductase (Homo sapiens, UniProt P00374)", "T1 sequence (P00374 whole entry)": "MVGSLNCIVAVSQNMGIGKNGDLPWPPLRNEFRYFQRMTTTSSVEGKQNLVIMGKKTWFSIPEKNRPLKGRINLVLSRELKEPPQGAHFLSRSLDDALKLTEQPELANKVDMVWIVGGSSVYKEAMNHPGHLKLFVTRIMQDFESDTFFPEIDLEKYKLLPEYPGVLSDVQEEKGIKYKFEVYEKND", "assay": "TBD: TBD"}, "[2]": {"target": "Epidermal growth factor receptor (Homo sapiens, UniProt P00533)", "sequence (P00533 whole entry)": "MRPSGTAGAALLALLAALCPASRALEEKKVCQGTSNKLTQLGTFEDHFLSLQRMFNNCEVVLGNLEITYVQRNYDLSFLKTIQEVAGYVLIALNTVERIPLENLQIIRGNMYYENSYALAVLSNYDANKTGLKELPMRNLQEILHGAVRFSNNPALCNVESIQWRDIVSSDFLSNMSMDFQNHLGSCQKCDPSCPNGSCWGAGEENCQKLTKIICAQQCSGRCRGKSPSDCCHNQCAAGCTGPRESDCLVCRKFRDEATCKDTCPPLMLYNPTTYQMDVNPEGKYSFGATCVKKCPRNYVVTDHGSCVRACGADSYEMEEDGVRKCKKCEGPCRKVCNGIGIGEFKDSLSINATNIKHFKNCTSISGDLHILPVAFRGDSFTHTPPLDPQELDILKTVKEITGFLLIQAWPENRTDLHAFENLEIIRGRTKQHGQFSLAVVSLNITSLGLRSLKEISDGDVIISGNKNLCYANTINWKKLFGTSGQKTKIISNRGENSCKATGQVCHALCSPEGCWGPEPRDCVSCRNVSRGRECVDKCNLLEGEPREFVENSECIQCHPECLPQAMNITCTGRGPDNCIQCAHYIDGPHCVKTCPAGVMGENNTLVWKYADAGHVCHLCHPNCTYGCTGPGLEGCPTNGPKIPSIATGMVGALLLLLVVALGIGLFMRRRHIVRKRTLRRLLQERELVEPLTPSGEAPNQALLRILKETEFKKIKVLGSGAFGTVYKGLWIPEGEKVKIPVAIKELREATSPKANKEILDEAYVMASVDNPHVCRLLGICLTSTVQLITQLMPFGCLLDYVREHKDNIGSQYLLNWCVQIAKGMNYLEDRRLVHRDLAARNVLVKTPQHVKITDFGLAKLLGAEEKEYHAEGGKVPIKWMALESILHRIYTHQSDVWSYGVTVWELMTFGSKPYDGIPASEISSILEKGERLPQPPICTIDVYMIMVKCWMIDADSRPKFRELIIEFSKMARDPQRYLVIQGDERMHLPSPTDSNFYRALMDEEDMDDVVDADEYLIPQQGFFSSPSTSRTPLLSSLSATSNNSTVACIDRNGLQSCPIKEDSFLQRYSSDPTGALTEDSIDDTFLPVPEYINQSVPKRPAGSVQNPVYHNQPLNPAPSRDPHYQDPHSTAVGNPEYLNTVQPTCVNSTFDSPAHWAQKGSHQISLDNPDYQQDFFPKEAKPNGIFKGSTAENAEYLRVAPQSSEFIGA", "assay": "TBD: TBD"}, "[3]": {"target": "Platelet-derived growth factor receptor beta (Homo sapiens, UniProt P09619)", "sequence (P09619 whole entry)": "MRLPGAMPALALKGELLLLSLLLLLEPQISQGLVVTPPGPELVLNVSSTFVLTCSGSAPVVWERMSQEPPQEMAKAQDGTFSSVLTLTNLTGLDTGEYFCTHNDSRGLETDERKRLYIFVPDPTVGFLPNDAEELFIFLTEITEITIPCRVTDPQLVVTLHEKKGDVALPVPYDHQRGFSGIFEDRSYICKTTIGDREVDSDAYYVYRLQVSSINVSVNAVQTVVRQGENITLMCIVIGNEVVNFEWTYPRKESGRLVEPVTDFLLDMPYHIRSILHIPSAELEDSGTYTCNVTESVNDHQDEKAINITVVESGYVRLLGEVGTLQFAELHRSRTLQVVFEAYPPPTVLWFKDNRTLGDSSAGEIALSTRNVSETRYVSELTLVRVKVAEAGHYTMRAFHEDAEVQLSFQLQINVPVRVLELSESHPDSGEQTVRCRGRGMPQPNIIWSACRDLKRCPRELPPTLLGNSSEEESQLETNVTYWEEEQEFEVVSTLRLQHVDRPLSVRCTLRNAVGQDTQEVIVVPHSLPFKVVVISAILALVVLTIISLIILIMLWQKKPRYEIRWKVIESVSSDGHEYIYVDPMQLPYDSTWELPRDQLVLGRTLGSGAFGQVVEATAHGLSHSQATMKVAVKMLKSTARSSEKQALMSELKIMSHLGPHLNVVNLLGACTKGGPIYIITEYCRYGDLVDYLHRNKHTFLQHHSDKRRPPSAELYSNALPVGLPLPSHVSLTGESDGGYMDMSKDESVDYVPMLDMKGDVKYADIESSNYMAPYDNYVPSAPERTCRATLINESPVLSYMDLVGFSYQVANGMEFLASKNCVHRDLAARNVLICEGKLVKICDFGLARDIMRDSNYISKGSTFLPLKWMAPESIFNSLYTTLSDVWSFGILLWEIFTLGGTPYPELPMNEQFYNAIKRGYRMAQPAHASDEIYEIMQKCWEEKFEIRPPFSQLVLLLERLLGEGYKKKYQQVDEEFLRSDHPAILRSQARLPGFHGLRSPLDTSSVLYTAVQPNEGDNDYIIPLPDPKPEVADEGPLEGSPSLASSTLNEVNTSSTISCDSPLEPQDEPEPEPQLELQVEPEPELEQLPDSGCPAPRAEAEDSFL", "assay": "TBD: TBD"}, "[4]": {"target": "Vascular endothelial growth factor receptor 1 (Homo sapiens, UniProt P17948)", "sequence (P17948 whole entry)": "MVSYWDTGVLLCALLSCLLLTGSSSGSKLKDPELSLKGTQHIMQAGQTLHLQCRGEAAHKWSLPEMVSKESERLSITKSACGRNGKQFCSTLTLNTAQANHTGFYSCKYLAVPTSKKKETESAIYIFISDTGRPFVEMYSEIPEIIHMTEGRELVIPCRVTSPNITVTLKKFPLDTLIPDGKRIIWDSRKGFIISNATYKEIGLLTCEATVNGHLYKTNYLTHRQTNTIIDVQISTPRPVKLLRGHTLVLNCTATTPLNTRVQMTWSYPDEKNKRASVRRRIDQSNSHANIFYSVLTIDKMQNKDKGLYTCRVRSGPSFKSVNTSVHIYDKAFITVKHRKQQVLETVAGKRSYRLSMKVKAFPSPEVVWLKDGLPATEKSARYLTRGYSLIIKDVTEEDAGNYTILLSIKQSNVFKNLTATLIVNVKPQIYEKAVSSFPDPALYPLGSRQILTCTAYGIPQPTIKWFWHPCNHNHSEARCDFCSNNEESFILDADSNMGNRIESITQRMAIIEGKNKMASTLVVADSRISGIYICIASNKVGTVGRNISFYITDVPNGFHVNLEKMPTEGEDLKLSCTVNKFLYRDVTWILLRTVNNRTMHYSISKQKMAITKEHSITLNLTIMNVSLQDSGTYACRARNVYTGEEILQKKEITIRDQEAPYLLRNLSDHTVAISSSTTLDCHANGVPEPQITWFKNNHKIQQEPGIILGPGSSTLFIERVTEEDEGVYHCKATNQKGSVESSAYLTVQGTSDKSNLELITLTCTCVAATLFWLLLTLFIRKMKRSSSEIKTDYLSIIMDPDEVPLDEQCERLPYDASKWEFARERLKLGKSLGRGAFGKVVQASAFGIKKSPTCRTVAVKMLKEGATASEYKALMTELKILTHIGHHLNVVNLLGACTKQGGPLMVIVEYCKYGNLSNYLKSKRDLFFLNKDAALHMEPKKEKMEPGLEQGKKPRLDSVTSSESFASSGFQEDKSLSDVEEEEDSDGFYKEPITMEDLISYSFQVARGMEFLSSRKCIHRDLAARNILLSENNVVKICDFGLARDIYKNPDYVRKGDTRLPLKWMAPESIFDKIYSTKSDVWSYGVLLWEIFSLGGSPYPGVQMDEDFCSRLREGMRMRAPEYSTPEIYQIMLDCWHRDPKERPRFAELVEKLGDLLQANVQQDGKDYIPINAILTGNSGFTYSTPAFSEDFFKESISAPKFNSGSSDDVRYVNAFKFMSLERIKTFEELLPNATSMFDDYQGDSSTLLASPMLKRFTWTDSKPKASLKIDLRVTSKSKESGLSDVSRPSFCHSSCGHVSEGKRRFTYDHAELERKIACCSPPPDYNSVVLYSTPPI", "assay": "TBD: TBD"}, "[5]": {"target": "Vascular endothelial growth factor receptor 2 (Homo sapiens, UniProt P35968)", "sequence (P35968 whole entry)": "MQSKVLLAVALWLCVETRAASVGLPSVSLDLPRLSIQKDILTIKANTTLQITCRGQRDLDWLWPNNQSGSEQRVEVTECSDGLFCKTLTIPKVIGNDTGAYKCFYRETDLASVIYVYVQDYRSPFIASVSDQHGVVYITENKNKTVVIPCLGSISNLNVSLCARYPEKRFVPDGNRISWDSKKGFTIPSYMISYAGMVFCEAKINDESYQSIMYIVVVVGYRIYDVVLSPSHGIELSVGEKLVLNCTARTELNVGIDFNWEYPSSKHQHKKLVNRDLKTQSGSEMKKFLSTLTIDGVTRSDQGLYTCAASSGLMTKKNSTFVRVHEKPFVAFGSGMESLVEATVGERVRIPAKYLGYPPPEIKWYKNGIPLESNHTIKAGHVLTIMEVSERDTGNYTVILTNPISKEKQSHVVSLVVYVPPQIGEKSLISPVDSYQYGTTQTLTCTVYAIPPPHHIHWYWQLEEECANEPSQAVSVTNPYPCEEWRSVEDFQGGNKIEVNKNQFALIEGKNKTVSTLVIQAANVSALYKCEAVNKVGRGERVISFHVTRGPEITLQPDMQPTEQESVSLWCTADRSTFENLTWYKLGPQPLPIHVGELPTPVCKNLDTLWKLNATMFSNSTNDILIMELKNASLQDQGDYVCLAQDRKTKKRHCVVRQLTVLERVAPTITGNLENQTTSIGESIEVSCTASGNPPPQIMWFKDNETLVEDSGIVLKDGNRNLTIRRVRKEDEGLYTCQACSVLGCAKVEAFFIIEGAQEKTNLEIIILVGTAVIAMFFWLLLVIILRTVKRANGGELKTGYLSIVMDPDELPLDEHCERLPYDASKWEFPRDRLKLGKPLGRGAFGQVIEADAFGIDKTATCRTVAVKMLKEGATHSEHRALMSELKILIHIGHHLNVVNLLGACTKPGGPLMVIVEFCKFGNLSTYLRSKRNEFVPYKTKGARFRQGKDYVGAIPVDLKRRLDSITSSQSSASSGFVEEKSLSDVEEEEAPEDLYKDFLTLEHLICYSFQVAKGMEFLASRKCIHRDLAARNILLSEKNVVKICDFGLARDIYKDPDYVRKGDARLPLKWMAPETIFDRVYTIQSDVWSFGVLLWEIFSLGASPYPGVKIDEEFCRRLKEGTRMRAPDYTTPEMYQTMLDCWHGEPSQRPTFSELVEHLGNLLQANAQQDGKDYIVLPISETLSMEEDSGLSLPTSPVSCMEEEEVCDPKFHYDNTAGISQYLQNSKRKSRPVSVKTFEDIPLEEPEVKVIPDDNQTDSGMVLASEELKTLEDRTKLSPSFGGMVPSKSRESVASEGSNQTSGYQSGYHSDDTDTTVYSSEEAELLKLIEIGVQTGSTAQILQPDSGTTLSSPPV", "assay": "TBD: TBD"}},
  "data": [
    {"molecule": "COc1ccc(Sc2sc3nc(N)nc(N)c3c2C)cc1OC", "values": [
      {"measurement": "IC50", "setting": "[1]", "value": 3.9, "unit": "µM"},
      {"measurement": "IC50", "setting": "Dihydrofolate reductase", "value": 0.91, "unit": "µM"},
      {"measurement": "IC50", "setting": "[2]", "value": 15.1, "unit": "µM"}
    ]},
    {"molecule": "COc1ccc(Sc2c(C)c3c(N)nc(N)nc3n2C)cc1OC", "values": [
      {"measurement": "IC50", "setting": "Dihydrofolate reductase", "value": 1.1, "unit": "µM"}
    ]},
    {"molecule": "COc1ccccc1Sc1sc2nc(N)nc(N)c2c1C", "values": [
      {"measurement": "IC50", "setting": "[2]", "value": 10.4, "unit": "µM"},
      {"measurement": "IC50", "setting": "[3]", "value": 40.3, "unit": "µM"},
      {"measurement": "IC50", "setting": "[4]", "value": 160, "unit": "µM"},
      {"measurement": "IC50", "setting": "[5]", "value": 56.3, "unit": "µM"}
    ]},
    {"molecule": "COc1ccc(Sc2sc3nc(N)nc(N)c3c2C)cc1", "values": [
      {"measurement": "IC50", "setting": "Dihydrofolate reductase", "value": 1.41, "unit": "µM"}
    ]},
    {"molecule": "COc1cc(C[C@H]2NCCc3cc(O)c(O)cc32)cc(OC)c1OC", "values": [
      {"measurement": "IC50", "setting": "[1]", "value": 0.0021, "unit": "µM"}
    ]}
  ]
}
